Test results reported in article PMC11030672 (Cancer Immunology, Immunotherapy : CII, 2008).

Columns and labels:
[1] = system: HLA-A3; test: Assembly assay for peptide binding to MHC class I molecules; settings: T2-A3 cells
[2] = system: T2-A3 cells; test: 51Cr-release cytotoxicity of T cell clone 9 against peptide-pulsed T2-A3 cells; assay type: cell-based; settings: peptide 10 μM; E:T ratios 9:1, 3:1, 1:1, 0,3:1; duplicates
[3] = system: HLA-A3+ melanoma cell line FM3; test: 51Cr-release cytotoxicity of clone 9 against FM3 melanoma cells; assay type: cell-based; settings: unlabeled T2-A3 cells pulsed with 10 μM peptide; inhibitor to target ratio 20:1; Fig. 4b, c

| Sequence | binding to HLA-A3 (in words) [1] | lysis of peptide-pulsed T2-A3 cells by clone 9 [2] | cold target inhibition of FM3 killing by clone 9 [3] |
| --- | --- | --- | --- |
| ILRGSVAHK [Influenza NP265–273, reference compound] | high affinity |  |  |
| RAGLQVRKNK [Rho1] | only bound very weakly to HLA-A3 | effectively lysed |  |
| RLGLQVRKNK [Rho1L2] | bound with intermediate affinity | effectively lysed | completely abrogated the killing of FM3 melanoma cells |
